# Assay results reported in ChEMBL document CHEMBL1155772, “Peroxide bond-dependent antiplasmodial specificity of artemisinin and OZ277 (RBx11160)” (Antimicrob Agents Chemother, 2007).
# The source made the active and inactive calls. The calls are words filed in the database; no cut-off is given here.
# What was measured:
# Trypanosoma cruzi = assay: Antitrypanosomal activity against Trypanosoma cruzi Tulahuen C4; type: functional, organism-based
# Babesia divergens [1] = assay: Antimicrobial activity against Babesia divergens 4201; type: functional, organism-based
# Leishmania donovani [2] = assay: Antileishmanial activity against Leishmania donovani MHOM-ET-67/L82 amastigotes by axenic assay; type: functional, organism-based
# Babesia divergens [3] = assay: Antimicrobial activity against Babesia divergens 1903B; type: functional, organism-based
# [4] = tested on: Trypanosoma brucei rhodesiense; assay: Antitrypanosomal activity against Trypanosoma brucei rhodesiense STIB900; type: functional, organism-based
# Giardia intestinalis [5] = assay: Antimicrobial activity against Giardia duodenalis G1; type: functional, organism-based
# Giardia intestinalis [6] = assay: Antimicrobial activity against Giardia duodenalis WB; type: functional, organism-based
# Plasmodium falciparum [7] = assay: Antiplasmodial activity against Plasmodium falciparum NF54; type: functional, organism-based
# Plasmodium falciparum [8] = assay: Antiplasmodial activity against Plasmodium falciparum K1; type: functional, organism-based
# Neospora caninum = assay: Antimicrobial activity against Neospora caninum up to 1 ug/ml; type: functional, organism-based
# Toxoplasma gondii = assay: Antimicrobial activity against Toxoplasma gondii in normal human foreskin fibroblasts; type: functional, organism-based
# Leishmania major = assay: Antileishmanial activity against Leishmania major amastigotes; type: functional, organism-based
# [9] = Inhibition of Plasmodium falciparum ATP6
# Leishmania donovani [10] = assay: Antileishmanial activity against Leishmania donovani promastigotes; type: functional, organism-based
# Pneumocystis carinii = assay: Antimicrobial activity against Pneumocystis carinii at 0.14 ug/ml in feeder layer cells; type: functional
Structure (SMILES),IC50 (Trypanosoma cruzi) [µg/mL],IC50 (Babesia divergens [1]) [µg/mL],IC50 (Leishmania donovani [2]) [µg/mL],IC50 (Babesia divergens [3]) [µg/mL],IC50 [4] [µg/mL],IC50 (Giardia intestinalis [5]) [µg/mL],IC50 (Giardia intestinalis [6]) [µg/mL],IC50 (Plasmodium falciparum [7]) [µg/mL],IC50 (Plasmodium falciparum [8]) [µg/mL],Activity (Neospora caninum),IC50 (Toxoplasma gondii) [µg/mL],IC50 (Leishmania major) [µg/mL],IC50 [9] [µM],IC50 (Leishmania donovani [10]) [µg/mL],inhibition at 0.14 µg/mL (Pneumocystis carinii) [%]
CC(C)(N)CNC(=O)CC1CC[C@]2(CC1)OC[C@]1(O2)C2CC3CC(C2)CC1C3 (stereo partly specified),13,7.5,20,6.7,0.77,18,38,4.9,2.5,inactive,,,,,
CCCSc1ccc2[nH]c(NC(=O)OC)nc2c1 [ALBENDAZOLE],,,,,,0.018,0.019,,,,,,,,
C[C@@H]1CC[C@H]2[C@@H](C)C(=O)O[C@@H]3O[C@@]4(C)CC[C@@H]1[C@]32OO4 [ARTEMISININ],> 30,> 10,8.8,> 10,25,49,65,0.004,0.002,inactive,2.3,8,0.079,8,55
O=C1C(O)=C([C@H]2CC[C@H](c3ccc(Cl)cc3)CC2)C(=O)c2ccccc21 [ATOVAQUONE],,0.0087,,0.0091,,,,,,,,,,,
O=C(Cn1ccnc1[N+](=O)[O-])NCc1ccccc1 [BENZNIDAZOLE],0.14,,,,,,,,,,,,,,
C[C@@H]1CC[C@H]2[C@@H](C)C(=O)O[C@@H]3O[C@@]4(C)CC[C@@H]1[C@]32O4 [DEOXYARTEMISININ],> 30,> 10,> 30,> 10,34,28,91,> 10,> 10,inactive,,,,,
CCCCCCCCCCCCCCCCOP(=O)([O-])OCC[N+](C)(C)C [MILTEFOSINE],,,0.2,,,,,,,,,,,,
CC(C)(N)CNC(=O)C[C@H]1CC[C@]2(CC1)OO[C@]1(O2)C2CC3CC(C2)CC1C3 [OZ277],9.5,> 10,24,> 10,0.56,49,41,0.00091,,inactive,,,7.7,,
